Data set [1] has as its target T1, human PPARα (Homo sapiens, UniProt Q07869).
T1 construct: expressed in transfected cells; host or cells: HEK-293
T1 sequence (Q07869 239-466 limits assumed): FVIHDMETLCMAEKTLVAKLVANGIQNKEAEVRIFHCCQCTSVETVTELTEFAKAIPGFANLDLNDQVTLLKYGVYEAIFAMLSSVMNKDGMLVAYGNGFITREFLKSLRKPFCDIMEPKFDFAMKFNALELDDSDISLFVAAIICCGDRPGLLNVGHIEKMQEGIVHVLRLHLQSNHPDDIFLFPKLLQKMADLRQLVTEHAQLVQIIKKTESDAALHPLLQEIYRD
The data set is described as follows: in vitro PPARα transactivation, GAL4-LBD luciferase reporter in HEK-293 cells. It is filed as cell-based. Particulars: luciferase fold activation relative to untreated cells. From the text: A number of derivatives of the invention have shown PPAR agonist activity. The following procedure was used for in vitro determination of PPARα, γ and δ transactivation.
(§1) The ligand binding domain of human PPARγ1, PPARα or PPARδ was fused to the C-terminal end of DNA binding domain of yeast transcription factor GAL4 in eukaryotic expression vector. HEK-293 cells were transfected with either of these plasmids, reporter plasmid pGL2 (Gal4×5)˜SV40˜Luc and pAdVantage using superfect (Qiagen, Germany) for 3 hours. pAdVantage vector was used to enhance the luciferase expression. 48 hours after transfection, the cells were harvested and incubated overnight with or without test compounds at different concentrations. The cells were lysed and luciferase activity was measured using the LucLite kit (Packard USA). Luciferase activity was measured as fold activation relative to untreated cells.

The target of data set [2] is T2, human PPARδ (Homo sapiens, UniProt Q03181).
T2 construct: expressed in transfected cells; host or cells: HEK-293
T2 sequence (Q03181 211-439 limits assumed): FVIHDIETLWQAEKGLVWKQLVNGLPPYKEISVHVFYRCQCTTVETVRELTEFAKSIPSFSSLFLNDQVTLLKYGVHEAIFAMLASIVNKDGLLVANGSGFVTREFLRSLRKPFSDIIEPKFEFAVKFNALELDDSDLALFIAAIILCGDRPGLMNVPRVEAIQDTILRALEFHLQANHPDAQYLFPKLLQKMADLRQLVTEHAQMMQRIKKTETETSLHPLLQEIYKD
As to the kind of experiment: in vitro PPARδ transactivation, GAL4-LBD luciferase reporter in HEK-293 cells. Particulars: luciferase fold activation relative to untreated cells. It is filed as cell-based. The procedure:
(§2) The following procedure was used for in vitro determination of PPARα, γ and δ transactivation.
as §1
In general terms: Reporter assays use an easily measured gene product as a stand-in for the process of interest.

Data set [3] addresses T3, human PPARγ1 (Homo sapiens, UniProt P37231).
T3 construct: expressed in transfected cells; host or cells: HEK-293
T3 sequence (P37231 238-503 limits assumed): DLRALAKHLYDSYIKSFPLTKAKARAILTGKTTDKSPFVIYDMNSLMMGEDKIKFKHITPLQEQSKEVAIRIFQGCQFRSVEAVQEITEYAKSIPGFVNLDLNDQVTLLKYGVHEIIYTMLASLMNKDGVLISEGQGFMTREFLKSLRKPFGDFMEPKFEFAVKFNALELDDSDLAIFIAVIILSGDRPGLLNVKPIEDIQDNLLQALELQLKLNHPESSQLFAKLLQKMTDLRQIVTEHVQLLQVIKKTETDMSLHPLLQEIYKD
The data set is described as follows: in vitro PPARγ transactivation, GAL4-LBD luciferase reporter in HEK-293 cells. In kind it is cell-based. Particulars: luciferase fold activation relative to untreated cells. On the procedure:
as §2, §1

Data set [4] has as its system Swiss albino mice. As to the kind of experiment: plasma triglyceride lowering activity in Swiss albino mice. Particulars: 3.0 mg/kg orally for 6 days. It is filed as in vivo. The procedure: The properties of the derivatives of the invention were also evaluated in vivo. The following procedure was used to determine plasma triglyceride and total cholesterol lowering activity in Swiss albino mice.
Male Swiss albino mice (SAM) were obtained from National Institute Nutrition (NIN) and housed in Dr. Reddy's Laboratories Ltd (DRL) animal house. All these animals are maintained under 12 hour light and dark cycle at 25±1° C. Animals were given standard laboratory chow (NIN, Hyderabad, India) and water, ad libitum. SAM of 20-25 grams body weight range were used. See Oliver, P., Plancke, M. O., Marzin, D., Clavey, V., Sauzieres, J and Fruchart, J. C. Effects of fenofibrate, gemfibrozil and nicotinic acid on plasma lipoprotein levels in normal and hyperlipidemic mice, Atherosclerosis. 1988. 70: 107-114, incorporated herein by reference in its entirety. The test compounds can be administered orally to Swiss albino mice at the dose mentioned in table for 6 days. Control mice were treated with vehicle 0.25% Carboxymethylcellulose (CMC; dose 10 ml/kg). The blood samples from the retro-orbital sinus through heparinised capillary in EDTA containing tubes were collected in fed state 1 hour after drug administration on 0 and 6 days of treatment. After centrifugation plasma was separated for triglyceride measurement using commercial kits. See Wieland, O. Methods of Enzymatic analysis. Bergermeyer, H. O., Ed., 1963. 211-214; Trinder, P. Ann. Clin. Biochem. 1969. 6: 24-27, incorporated herein by reference in its entirety. Percent reduction was calculated as per the formula given in Petit, D., Bonnefis, M. T., Rey, C. and Infante, R. Effects of ciprofibrate on liver lipids and lipoprotein synthesis in normo- and hyperlipidemic rats. Atherosclerosis. 1988. 74 : 215-225.

Data set [5] relates to hypercholesterolemic rat model. As to the kind of experiment: plasma triglyceride and cholesterol lowering activity in hypercholesterolemic rat model. It is filed as in vivo, Sprague Dawley rats. Particulars: hypercholesterolemic rats, 3.0 mg/kg orally for 3 days. On the procedure:
The following procedure was used to determine plasma triglyceride and cholesterol lowering activity in hypercholesterolemic rat model.
Male Sprague Dawley rats (NIN stock) were bred in DRL animal house. Animals were maintained under 12 hour light and dark cycle at 25±1° C. Rats of 180-200 gram body weight range were used for the experiment. Animals are made hypercholesterolemic by feeding 2% cholesterol and 1% sodium cholate mixed with standard laboratory chow [National Institute of Nutrition (NIN), Hyderabad, India] for 6 days. Throughout the experimental period the animals were maintained on the same diet. The test compounds were administered orally at a dose mentioned in table for 3 days. Control group was treated with vehicle alone (0.25% CMC; 10 ml/kg). The blood samples were collected in fed state 1 hour after drug administration on 0 and 3 days of compound treatment. The blood was collected from the retro-orbital sinus through heparinised capillary in EDTA containing tubes. After centrifugation, plasma sample was separated for total cholesterol, HDL and triglyceride estimations. Measurement of plasma triglyceride, total cholesterol and HDL were done using commercial kits. LDL and VLDL cholesterol can be calculated from the data obtained for total cholesterol, HDL and triglyceride.
The percent reductions in blood sugar/triglycerides/total cholesterol were calculated according to the following formula:
OC=Zero day control group value
OT=Zero day treated group value
TC=Test day control group value
T=Test day treated group value.
The levels of LDL and VLDL cholesterol were calculated according to the formula:
VLDL cholesterol in mg/dl=[Total cholesterol-HDL cholesterol-LDL cholesterol] mg/dl.

The melting point is the temperature of the solid-liquid transition. On to `CCCc1nn(C)c2c(=O)n(CCOc3cccc(OC(C)(CC)C(=O)O)c3)c(C)nc12` (stereo not drawn) [Example 98, 2-{3-[2-(1,5-Dimethyl-7-oxo-3-propyl-1,7-dihydro-pyrazolo[4,3-d]pyrimidin-6-yl)-ethoxy]-phenoxy}-2-methyl-butyric acid], for which the melting point fell in the range of 130 to 132 °C. The compound further came in with a PPARα activation in data set [1] (test compound at 1 μM) of 5.0. For the same compound, in data set [1] (test compound at 10 μM), the PPARα activation was 5.7. In addition, in data set [2] (test compound at 1 μM), the PPARδ activation is 0.6. Besides, in data set [2] (test compound at 10 μM), the PPARδ activation is 3.3. Also, in data set [3] (test compound at 1 μM), the PPARγ activation was 1.1(87.3). In data set [3] (test compound at 10 μM), the PPARγ activation is recorded as 0.3(85.3). For the same compound, the “% reduction in TG” value in data set [4] is on record as 65%. For the same compound, in data set [5] (LDL cholesterol calculated by formula), the “Reduction (%) LDL” value is reported as 75%. Besides, in data set [5] (increase of plasma HDL (under head Reduction (%))), the “↑HDL” value worked out at 267%. The “Reduction (%) TC” value in data set [5] (plasma total cholesterol) was 67%. Moreover, in data set [5] (plasma triglyceride), the “Reduction (%) TG” value is listed as 81%.

(Values after patent US20080114005A1, “Fibrate Compounds Having Ppar Agonist Activity” (Dr. Reddy's Laboratories Limited, priority 2004, published 2008).)
